Consider nine compounds from PubChem BioAssay (NCI).

Among the test systems are UACC-62 melanoma; TK-10 renal; HCT-15 colon; CCRF-CEM leukemia; OVCAR-4 ovarian; OVCAR-8 ovarian; K-562 leukemia; SNB-19 CNS; NCI-H226 lung; SK-MEL-2 melanoma.
Common to all, as to experiment: inhibition of tumour cell growth, NCI panel, 48 h

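In this assay, cells in 96-well plates receive the compound at five concentrations for 48 hours. Endpoints are linearly interpolated between the surrounding concentrations. Here, GI50 denotes the concentration required for 50% inhibition of growth. Definition used: TGI = concentration required for complete inhibition of growth.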

On to `COc1cc(/C=C/C(=O)c2c(-c3ccc(F)cc3)nc3sc(C)nn23)cc(OC)c1OC`, for which the GI50 was 1.94 µM in the experiment with UACC-62 melanoma; 2.92 µM in the experiment with TK-10 renal; 2 µM with HCT-15 colon; 2000 nM in the experiment with CCRF-CEM leukemia; 3.61 µM with OVCAR-4 ovarian; 2480 nM with OVCAR-8 ovarian. The GI50 in the experiment on K-562 leukemia was 2.61 µM; with SNB-19 CNS, 3.24 µM; with NCI-H226 lung it was 2460 nM. In addition, the TGI with UACC-62 melanoma came to 4.44 µM; in the experiment on TK-10 renal, 8.14 µM; with HCT-15 colon, 5.46 µM; with CCRF-CEM leukemia, 5.95 µM; in the experiment on OVCAR-4 ovarian, 85.6 µM; with OVCAR-8 ovarian, 12.9 µM. The figures for the TGI in the experiment on K-562 leukemia, in the experiment with SNB-19 CNS and with NCI-H226 lung were 15 µM, 13.1 µM and 8.3 µM, respectively.
As for `COc1cc2nc3cc([N+](=O)[O-])ccc3c(NCCNCC(C)O)c2cc1OC` (stereo not given), the GI50 with TK-10 renal is 1.72 µM; in the experiment on HCT-15 colon, 3.27 µM; in the experiment with SK-MEL-2 melanoma, 0.63 µM; in the experiment with CCRF-CEM leukemia it was 340 nM; in the experiment on OVCAR-4 ovarian it was 0.886 µM; in the experiment on OVCAR-8 ovarian, 587 nM. In addition, the GI50 in the experiment on SNB-19 CNS was 0.436 µM; in the experiment with NCI-H226 lung, 1050 nM. Also, the TGI with TK-10 renal amounted to 5.71 µM; in the experiment with HCT-15 colon it was 13.1 µM; in the experiment with SK-MEL-2 melanoma it was 2.18 µM; with CCRF-CEM leukemia, 3.13 µM; in the experiment on OVCAR-4 ovarian it was 2.92 µM; in the experiment with OVCAR-8 ovarian, 3.13 µM. Besides, the TGI in the experiment on SNB-19 CNS was 2.74 µM; in the experiment with NCI-H226 lung it was 3.18 µM.
Consider `CCNCCNc1cc(-c2ccc(C(F)(F)F)cc2)c(C#N)c2nc3cc(Cl)c(Cl)cc3n12`, for which the GI50 in the experiment with UACC-62 melanoma was 1.84 µM; with TK-10 renal, 2.38 µM; in the experiment with HCT-15 colon it was 0.289 µM; in the experiment with OVCAR-4 ovarian, 1.41 µM; in the experiment on OVCAR-8 ovarian it was 1740 nM; in the experiment with K-562 leukemia, 0.183 µM. For the same compound, the GI50 in the experiment with SNB-19 CNS is 1.88 µM. The TGI in the experiment with UACC-62 melanoma turned out to be 3.57 µM; in the experiment on TK-10 renal it was 3.87 µM; in the experiment on HCT-15 colon, 0.935 µM; in the experiment on OVCAR-4 ovarian it was 3.14 µM; in the experiment on OVCAR-8 ovarian, 3.41 µM; with K-562 leukemia it was 0.365 µM. The compound also showed a TGI in the experiment on SNB-19 CNS of 3.65 µM.
As to `COc1ccc(OC)c(/C=C/c2ccnc3ccccc23)c1`, the TGI with UACC-62 melanoma is 7.59 µM; with TK-10 renal, 16 µM; in the experiment on HCT-15 colon, 17.3 µM; with CCRF-CEM leukemia, 5.91 µM; with OVCAR-4 ovarian, 19.6 µM; with OVCAR-8 ovarian it was 1.88 µM. In addition, the TGI in the experiment with K-562 leukemia stood at 2.06 µM; in the experiment on SNB-19 CNS, 13.2 µM; in the experiment with NCI-H226 lung it was 4.74 µM.
For the compound `C=C1C(=O)C2=CC1CCC(=O)C1(C)CCC(OC(C)=O)C(C)(C)C1CC2O` (stereo not given), the TGI in the experiment on UACC-62 melanoma stood at 5.96 µM; with TK-10 renal, 26.5 µM; with HCT-15 colon, 2.6 µM; in the experiment on SK-MEL-2 melanoma it was 25.6 µM; in the experiment with OVCAR-4 ovarian, 10.8 µM; in the experiment on OVCAR-8 ovarian, 16.5 µM. For the same compound, the figures for the TGI in the experiment with SNB-19 CNS and with NCI-H226 lung were 15 µM and 31.9 µM, respectively.
Consider `CN(C)CCNC(=O)c1ccc2oc3cc4ccccc4c(=O)n3c2c1`, for which the GI50 in the experiment on UACC-62 melanoma is 48.4 µM; in the experiment on TK-10 renal, 21.6 µM; with HCT-15 colon it was 28.2 µM; in the experiment on SK-MEL-2 melanoma it was 21.4 µM; in the experiment on OVCAR-4 ovarian, 7.6 µM; in the experiment on OVCAR-8 ovarian, 23100 nM. Also, the GI50 with K-562 leukemia was 64.1 µM; in the experiment on SNB-19 CNS, 40.9 µM. Also, the TGI is above 100 µM in the experiment on UACC-62 melanoma; 72.3 µM in the experiment on TK-10 renal; above 100 µM with HCT-15 colon; 63.5 µM in the experiment on SK-MEL-2 melanoma; above 100 µM in the experiment on OVCAR-4 ovarian; 76.2 µM in the experiment on OVCAR-8 ovarian. The TGI in the experiment on K-562 leukemia and in the experiment on SNB-19 CNS was above 100 µM each time.
For the compound `O=S(=O)(NCCCNc1cc(-c2cn(-c3ccccc3)nc2-c2cccc(O)c2)ccn1)c1ccc(Br)cc1`, the GI50 is 1.57 µM in the experiment on UACC-62 melanoma; 3.35 µM in the experiment with TK-10 renal; 1.32 µM in the experiment on HCT-15 colon; 1.95 µM with SK-MEL-2 melanoma; 1.86 µM with OVCAR-4 ovarian; 2450 nM with OVCAR-8 ovarian. Also, the GI50 in the experiment with K-562 leukemia was 0.444 µM; in the experiment with SNB-19 CNS, 2.98 µM; with NCI-H226 lung, 2320 nM. Also, the TGI in the experiment on UACC-62 melanoma was found to be 3.59 µM; with TK-10 renal, 10.2 µM; in the experiment on HCT-15 colon, 3.51 µM; in the experiment with SK-MEL-2 melanoma it was 3.84 µM; in the experiment on OVCAR-4 ovarian it was 8.65 µM; in the experiment with OVCAR-8 ovarian, 9.29 µM. For the same compound, the figures for the TGI in the experiment with K-562 leukemia, with SNB-19 CNS and in the experiment on NCI-H226 lung were 2.89 µM, 14.7 µM and 8.66 µM, respectively.
On to `COc1ccc(NC(=O)c2ccc(NC3=C(Cl)C(=O)N(Cc4ccccc4)C3=O)cc2)c(OC)c1`, for which the GI50 is 37.2 µM in the experiment with UACC-62 melanoma; 22.8 µM with TK-10 renal; 20 µM with HCT-15 colon; 25.7 µM in the experiment on SK-MEL-2 melanoma; 61.8 µM with OVCAR-4 ovarian; 29200 nM in the experiment on OVCAR-8 ovarian. The GI50 with K-562 leukemia is 8.18 µM; with SNB-19 CNS, 57.4 µM; in the experiment with NCI-H226 lung, 43900 nM. For the same compound, the TGI is above 100 µM in the experiment with UACC-62 melanoma; above 100 µM in the experiment with TK-10 renal; 46.3 µM in the experiment with HCT-15 colon; 68.9 µM in the experiment with SK-MEL-2 melanoma; above 100 µM with OVCAR-4 ovarian; above 100 µM in the experiment on OVCAR-8 ovarian. In addition, the TGI was 43 µM in the experiment on K-562 leukemia, above 100 µM in the experiment with SNB-19 CNS and above 100 µM with NCI-H226 lung.
Turning to `C/C=C(\C)C(=O)O[C@H]1C=CC(=O)O[C@H]1COC(=O)[C@H](C)O`, the GI50 was 7.71 µM with UACC-62 melanoma; 10.8 µM with TK-10 renal; 3.74 µM in the experiment with HCT-15 colon; 15.3 µM with SK-MEL-2 melanoma; 5.97 µM in the experiment on OVCAR-4 ovarian; 12200 nM with OVCAR-8 ovarian. The GI50 with K-562 leukemia is 3.69 µM; with SNB-19 CNS, 12.1 µM; with NCI-H226 lung, 12400 nM. Moreover, the TGI with UACC-62 melanoma was 21 µM; with TK-10 renal, 24.3 µM; in the experiment on HCT-15 colon, 16.2 µM; in the experiment with SK-MEL-2 melanoma, 41.4 µM; in the experiment on OVCAR-4 ovarian, 21.5 µM; in the experiment on OVCAR-8 ovarian, 28.3 µM. In addition, the TGI was found to be 17.6 µM in the experiment with K-562 leukemia, 27 µM with SNB-19 CNS and 31.5 µM with NCI-H226 lung.
